Measurements: US7125958B1, “Malaria polypeptides” (priority 1997, dated 2006)

Legend:
Type in all cases: cell-based, Plasmodium falciparum
[1] = system: FCR3S1.2 infected pRBC rosettes; conditions: competitive rosette-reformation, enzyme 60–90 min
FCR3S1 rosetting = conditions: compared to mock treated control cultures
TM 284 rosetting = system: TM 284 rosetting
[2] = system: uninfected RBC rosette binding capacity; conditions: compared to non-treated RBC
TM180 rosettes = experiment: Heparinase treatment, rosettes of strain TM180; conditions: not shown
R29 rosettes = experiment: Heparinase treatment, rosettes of strain R29; conditions: not shown

Substance: Heparinase III
- effect of enzyme treatment of the uninfected erythrocyte on rosette binding [1]: treatment blocked the binding
- change in rosetting after treatment of whole cultures, FCR3S1 (FCR3S1 rosetting): drastic reduction of the rosetting capacity
- change in rosetting after treatment of whole cultures, TM 284 (TM 284 rosetting; compared to mock treated control cultures): somewhat lower decrease
- effect of heparinase treatment on rosettes, TM284 (TM 284 rosetting; not shown): disrupted the rosettes
- decrease of rosette binding capacity of treated uninfected RBC [2]: 4–5 fold
- effect of heparinase treatment on rosettes, TM180 (TM180 rosettes): disrupted the rosettes
- effect of heparinase treatment on rosettes, R29 (R29 rosettes): not affected
